In US20070207093A1, “Hydrazone derivatives and uses thereof” (Linquagen Corp., priority 2005, published 2007) one finds inhibition data, which are given here for two molecules.

Common to all, as to assay type: cell-based
Experiment [1] has as its system membrane potential response (non-specific ion channel block). As to the kind of experiment: KCl counterscreen (membrane potential dye, 10 mM KCl stimulation). As to conditions: Homo sapiens; 10 μM compound; same HEK293 TRPM5 cells; 10 mM KCl instead of ATP; read-out: KC1 Counterscreen (percent inhibition). As for the experimental part:
(§1) Two counterscreen assays were run on separate cell plates utilizing the same cells as described above. In the calcium counterscreen, the cells were loaded with a calcium sensitive dye (Calcium3 Dye, Part no. 8090, Molecular Devices Corp.) and stimulated by ATP to check for compounds that block the GPCR-mediated calcium activation step. In the KCl counterscreen, cells are stimulated with 10 mM KCl instead of ATP to check for compounds that inhibit the membrane potential response by virtue of being non-specific ion channel blockers.
(§2) Unless otherwise indicated, the data in the table below were determined using the three assays described above, providing percent inhibition data at 10 μM.

The target of another experiment is T1, human TRPM5 ion channel (Homo sapiens, UniProt Q9NZQ8).
T1 construct: expressed in transfected cells
T1 sequence (Q9NZQ8 1-1165): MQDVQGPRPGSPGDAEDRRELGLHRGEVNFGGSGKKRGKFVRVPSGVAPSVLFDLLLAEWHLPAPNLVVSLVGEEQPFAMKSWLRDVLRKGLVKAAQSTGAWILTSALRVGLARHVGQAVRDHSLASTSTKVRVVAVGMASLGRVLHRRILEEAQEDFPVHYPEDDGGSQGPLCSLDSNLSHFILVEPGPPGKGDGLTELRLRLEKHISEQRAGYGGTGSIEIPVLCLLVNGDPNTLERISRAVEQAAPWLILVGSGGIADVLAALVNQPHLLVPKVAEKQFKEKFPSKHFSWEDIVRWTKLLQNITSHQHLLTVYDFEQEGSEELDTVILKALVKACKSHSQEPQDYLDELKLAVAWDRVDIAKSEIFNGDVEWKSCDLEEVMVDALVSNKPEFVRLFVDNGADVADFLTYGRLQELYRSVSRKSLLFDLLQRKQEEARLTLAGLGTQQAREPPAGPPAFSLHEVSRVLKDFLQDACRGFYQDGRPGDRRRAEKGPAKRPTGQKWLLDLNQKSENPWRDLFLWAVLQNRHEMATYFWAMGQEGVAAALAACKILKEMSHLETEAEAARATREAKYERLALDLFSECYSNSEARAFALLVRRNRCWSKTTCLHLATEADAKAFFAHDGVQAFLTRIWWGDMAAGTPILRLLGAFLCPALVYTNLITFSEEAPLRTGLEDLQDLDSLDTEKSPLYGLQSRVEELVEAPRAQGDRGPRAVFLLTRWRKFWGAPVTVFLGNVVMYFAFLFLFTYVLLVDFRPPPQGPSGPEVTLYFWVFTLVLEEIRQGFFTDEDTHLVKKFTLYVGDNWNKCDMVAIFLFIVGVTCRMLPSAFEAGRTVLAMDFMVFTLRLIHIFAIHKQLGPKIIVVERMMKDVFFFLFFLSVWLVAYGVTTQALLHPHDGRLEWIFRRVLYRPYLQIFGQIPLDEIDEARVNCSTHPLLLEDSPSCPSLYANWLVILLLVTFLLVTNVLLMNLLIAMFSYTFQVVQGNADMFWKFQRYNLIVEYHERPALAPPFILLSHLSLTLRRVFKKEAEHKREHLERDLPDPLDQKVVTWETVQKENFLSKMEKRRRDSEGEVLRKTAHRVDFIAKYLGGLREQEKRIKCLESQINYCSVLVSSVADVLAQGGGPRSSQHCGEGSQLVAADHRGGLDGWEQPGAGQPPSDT
As to the kind of experiment: TRPM5 FLIPR membrane potential screening assay (ATP stimulation). The conditions noted are these: 10 μM compound; HEK293 cells stably expressing human TRPM5; 3 μM ATP stimulation; versus negative control wells; read-out: TRPM5 Activity (percent inhibition). As for the experimental part: The activity of human TRPM5 ion channel was measured in live cells on a fluorescent imaging plate reader (FLIPR). The basis of the assay (shown in FIG. 1) is the calcium-dependent activation of the ion channel which occurs via by activation of a G-protein coupled receptor (GPCR). GPCR activation by an appropriate agonist causes a transient increase in […] Ca^2+ ion concentration which in turn causes the ion channel to open, letting in Na^+ ions. This influx causes a change in the membrane potential of the cell which can be monitored as a change in the fluorescent signal from voltage-dependent (membrane potential) fluorescent dyes.
For the screening assay, the human TRPM5 gene was cloned, put into HEK293 cells, and a stable, high expression clone was used for screening. Cells were grown in standard media at 37° C. The day before screening, the cells were removed from flasks and added to 384 well clear bottom plates (8K cells in 20 μL/well). On the assay day, 20 μL of membrane potential dye (Part No. R8123, Molecular Devices Corp.) was added to the cells and dye was allowed to be taken up, i.e., load, into the cells for 1 hr at 37° C. […] The assay was started by addition of 10 μL of solution from the compound plate into the cell plate. During this process, continuous fluorescent recordings were made simultaneously for all wells. After addition of the compound solution, the tips were automatically washed and a stimulation solution of 3 μM ATP (an agonist for an endogenous purinurgic GPCR, was added to all wells of the cell plate. The height of the response was calculated and percent inhibition values, versus negative control wells, was calculated for the test samples.
as §2

A further experiment addresses T2, human TRPM5 (Homo sapiens, UniProt Q9NZQ8).
T2 construct: expressed in transfected cells; host or cells: HEK cells, stably transfected
T2 sequence (Q9NZQ8 1-1165): T1 sequence (Q9NZQ8 1-1165)
As to the kind of experiment: Whole-cell electrophysiology of TRPM5 current. The conditions noted are these: HEK293; HEK cells stably transfected with human TRPM5, pre-treated with 10 μM; current activated by intracellular calcium dialysis (170 nM free calcium); FIG. 2B. As for the experimental part:
Standard whole-cell recordings were obtained from HEK cells stably transfected with human TRPM5. Internal solution contained 135 mM CsGlutamate, 10 mM HEPES, 2 mM MgATP, 5 mM CaCl2 and 10 mM EGTA. External solution was HBSS (Gibco) buffered with 20 mM HEPES to pH 7.2. Currents were recorded with Multiclamp 700B amplifier using PClamp software; filered at 1 kHz, sampled at 5 kHz. Holding potential was −80 mV. TRPM5 current was activated by intracellular calcium dialysis (170 nM free calcium) and sampled with 200 ms ramps from −80 to 80 mV at 1 Hz. Current amplitudes were measured at −80 and 80 mV potted versus time.

Experiment [2] relates to GPCR-mediated calcium activation step. The experiment can be described thus: Calcium counterscreen (calcium sensitive dye, ATP stimulation). As to conditions: Homo sapiens, 10 μM compound, same HEK293 TRPM5 cells, Calcium3 dye, read-out: Calcium Counterscreen (percent inhibition). As for the experimental part:
as §1, §2

Molecules are shown by their SMILES.

For the molecule `COc1ccc(/C=N/NC(=O)Cc2cccc3ccccc23)cc1OC` [Example 3, (E)-N′-(3,4-Dimethoxybenzylidene)-2-(naphthalene-1-yl)acetohydrazide], the inhibition at 10 µM is 6% in experiment [1], 97% on human TRPM5 ion channel, > 90% at human TRPM5 and 2% in experiment [2].
Regarding `Cc1ccc2c(c1)/C(=N/NC(=O)/C(=C\c1ccccc1)NC(=O)c1ccccc1)C(=O)N2C` [Example 14, N-((E)-3-((Z)-2-(1,5-Dimethyl-2-oxoindolin-3-ylidene)hydrazinyl)-3-oxo-1-phenylprop-1-en-2-yl)benzamide], the inhibition at 10 µM in experiment [1] is 40%; on human TRPM5 ion channel, 78%; in experiment [2] it was -29%.
